56 compounds from patent US20130029964A1, “[5, 6] HETEROCYCLIC COMPOUND” (DAIICHI SANKYO COMPANY, LIMITED, priority 2010, published 2013) can be followed below.

The structures appear in SMILES notation. Where a name gives a salt, the structure may show the parent alone.

The subject of this assay is ST2 cells, murine bone marrow-derived stromal cells. The experiment in a line: Osteoblast differentiation test (ALP activity). It is filed as cell-based. The note with it: Mus musculus, ST-2, 96 h, at 0.1 μg/mL, control group (0.1% DMSO) = 100%, four days of culturing, read-out: alkaline phosphatase activity. The procedure: ST2 cells, murine bone marrow-derived stromal cells, (obtained from RIKEN) were used.
In this test, α-MEM media (obtained from GIBCO BRL Cat. No. 10370-021) containing 10% (v/v) of inactivated calf serum (obtained from Hyclone Laboratories, Inc.) and 1% (v/v) of Penicillin-Streptomycin Liquid (obtained from GIBCO BRL Cat. No. 15140-122) (hereinbelow, abbreviated as 10%-FBS-αMEM) were used. In this test, all culturing was performed in a CO2 incubator (37° C., 95% humidity, 5% CO2).
The aforementioned cells were detached with 2 mL of a 0.25% trypsin solution (obtained from GIBCO BRL Cat. No. 15050-065) and dispersed in 10 mL of 10%-FBS-αMEM. Subsequently, the cells were collected by centrifugation (25° C., 800 rpm, five minutes). Then, a cell suspension containing 40000 of the cells/mL of 10%-FBS-αMEM was prepared. The cell suspension was then dispensed into 96-well plates (the product of Falcon), 100 μL per well, at a density of 4000 cells/well, followed by culturing for 24 hours. To the wells, except for the below-described well containing a control group, the compound was dispensed at final concentrations of 0.01, 0.03, 0.1, and 0.3 μg/ml. To the well of a control group, DMSO was dispensed at a final concentration of 0.1% (v/v). After four days of culturing, the activity of alkaline phosphatase (ALP) was measured in each group.
The measurement of ALP activity was performed as follows. That is, the medium in each well of the culture plates was completely removed. Each well was then washed by dispensing 100 μL of Dulbecco's phosphate buffer (obtained from GIBCO BRL Cat. No. 14190-144) and then removing it. A cell lysate solution containing 10 mM MgCl2 and 2% (v/v) TritonX-100 (Sigma) was prepared and dispensed at 50 μL/well, followed by stirring at room temperature for five minutes. An ALP substrate solution containing 50 mM diethanolamine (Wako Pure Chemical Industries, Ltd., Cat. No. 099-03112) and 20 mM p-nitrophenyl phosphate (Wako Pure Chemical Industries, Ltd., Cat. No. 147-02343) was prepared and dispensed at 50 μL/well, and the plates were left to stand at room temperature for 10 minutes. Subsequently, absorbance was measured by a microplate reader (Bio-Rad Laboratories, Inc.). Setting the measurement value of the control group of each plate at 100%, alkaline phosphatase activity (increase (%)) in the test compound-addition group was calculated, which was assessed as the degree of osteoblast differentiation.
In the case of `OCCOc1ccc(-n2cnc3cc(-c4ccccn4)ccc32)cc1` [Example 128], the activity at 0.1 µg/mL is ≥ 200%.

On to `OCCOc1ccc(-c2cnc3cc(-c4ccncc4)ccn23)cc1` [Example 72], for which the activity at 0.1 µg/mL is ≥ 200%.

`CC(=O)N1CC=C(c2ccn3c(-c4ccc(OCCOC5CCOCC5)cc4)cnc3c2)CC1` [Example 68]: the activity at 0.1 µg/mL was ≥ 200%.

As for `N#Cc1ccc2ncn(-c3ccc(OCCOC4CCOCC4)cc3)c2c1` [Example 24, 1-{4-[2-(Tetrahydro-2H-pyran-4-yloxy)ethoxy]phenyl}-1H-benzimidazole-6-carbonitrile hydrochloride], the activity at 0.1 µg/mL was ≥ 200%.

In the case of `c1cc(-c2ccc3ncc(-c4ccc(NCCOC5CCOCC5)cc4)n3c2)ccn1` [Example 142], the activity at 0.1 µg/mL was ≥ 200%.

For `O=C(c1ccc(-c2ccn3c(-c4ccc(NCCOC5CCOCC5)cc4)cnc3c2)nc1)N1CCOCC1` [Example 132], the activity at 0.1 µg/mL is ≥ 200%.

For `Clc1ccc2ncc(-c3ccc(OCCOC4CCOCC4)cc3)n2c1` [Example 131], the activity at 0.1 µg/mL was ≥ 200%.

`c1cc(-c2ccc3c(c2)ncn3-c2ccc(OCCOC3CCOCC3)cc2)ccn1` [Example 44]: the activity at 0.1 µg/mL is ≥ 200%.

For `OCCNc1ccc(-n2cnc3ccccc32)cc1` [Example 97], the activity at 0.1 µg/mL is ≥ 200%.

Regarding `FC(F)Oc1ccc2ncn(-c3ccc(OCCOC4CCOCC4)cc3)c2c1` [Example 25, 6-(Difluoromethoxy)-1-{4-[2-(tetrahydro-2H-pyran-4-yloxy)ethoxy]phenyl}-1H-benzimidazole hydrochloride], the activity at 0.1 µg/mL is ≥ 200%.

Take `OCCNc1ccc(-n2cnc3cc(Cl)c(Cl)cc32)cc1` [Example 26]: the activity at 0.1 µg/mL is ≥ 200%.

Take `OCCNc1ccc(-n2cnc3ccc(Cl)cc32)cc1` [Example 4, 2-{[4-(6-Chloro-1H-benzimidazol-1-yl)phenyl]amino}ethanol hydrochloride]: the activity at 0.1 µg/mL is ≥ 200%.

Consider `N#Cc1ccc2ncc(-c3ccc(OCCO)cc3)n2c1` [Example 69], for which the activity at 0.1 µg/mL was ≥ 200%.

As for `OCCOc1ccc(-n2cnc3cc(-c4nccs4)ccc32)cc1` [Example 64], the activity at 0.1 µg/mL is ≥ 200%.

As for `Clc1ccn2c(N3CCC(OCCOC4CCOCC4)CC3)cnc2c1` [Example 139], the activity at 0.1 µg/mL is ≥ 200%.

As to `OCCOc1ccc(-c2cnc3ccc(-c4cc[nH]c4)cn23)cc1` [Example 8, 2-{4-[6-(1H-Pyrrol-3-yl)imidazo[1,2-a]pyridin-3-yl]phenoxy}ethanol], the activity at 0.1 µg/mL is ≥ 200%.

With `CC(C)(C)OC(=O)NCCOc1ccc(-n2cnc3ccccc32)cc1` [Example 99], the activity at 0.1 µg/mL is ≥ 200%.

On to `Cc1cc(-c2ccc3c(c2)ncn3-c2ccc(OCCO)cc2)ccn1` [Example 43], for which the activity at 0.1 µg/mL is ≥ 200%.

With `Fc1ccc2ncc(-c3ccc(OCCOC[C@@H]4COCCO4)cc3)n2c1` [Example 88], the activity at 0.1 µg/mL was ≥ 200%.

As to `CN(C)S(=O)(=O)c1ccc(-c2ccn3c(-c4ccc(OCCO)cc4)cnc3c2)cc1` [Example 134], the activity at 0.1 µg/mL is ≥ 200%.

In the case of `Fc1ccc2ncc(-c3ccc(NCCOC4CCOCC4)cc3)n2c1` [Example 111], the activity at 0.1 µg/mL is ≥ 200%.

`CS(=O)(=O)c1ccc(-c2ccc3c(c2)ncn3-c2ccc(OCCO)cc2)cn1` [Example 129]: the activity at 0.1 µg/mL is ≥ 200%.

As to `O=C(c1ccc(-c2ccc3c(c2)ncn3-c2ccc(OCCO)cc2)nc1)N1CCOCC1` [Example 130], the activity at 0.1 µg/mL was ≥ 200%.

`C#Cc1ccc2ncc(-c3ccc(OCCOC4CCOCC4)cc3)n2c1` [Example 21, 6-Ethynyl-3-{4-[2-(tetrahydro-2H-pyran-4-yloxy)ethoxy]phenyl}imidazo[1,2-a]pyridine]: the activity at 0.1 µg/mL is ≥ 200%.

Consider `Clc1ccc2ncc(-c3ccc(NCCOC4CCOCC4)cc3)n2c1` [Example 135], for which the activity at 0.1 µg/mL is ≥ 200%.

For `c1cc(-n2cnc3cc4c(cc32)OCCO4)ccc1OCCOC1CCOCC1` [Example 49], the activity at 0.1 µg/mL is ≥ 200%.

For the compound `COc1ccn2c(-c3ccc(NCCO)cc3)cnc2c1` [Example 119], the activity at 0.1 µg/mL is ≥ 200%.

Turning to `N#Cc1ccc(-c2ccc3c(c2)ncn3-c2ccc(OCCO)cc2)cc1` [Example 51], the activity at 0.1 µg/mL is ≥ 200%.

Turning to `OCCOc1ccc(-n2cnc3cc(-c4cccnc4)ccc32)cc1` [Example 42], the activity at 0.1 µg/mL was ≥ 200%.

With `OCCOc1ccc(-c2cnc3cc(N4CCOCC4)ccn23)cc1` [Example 70], the activity at 0.1 µg/mL is ≥ 200%.

As to `N#Cc1ccc2ncn(-c3ccc(OCCOC[C@H]4COCCO4)cc3)c2c1` [Example 92], the activity at 0.1 µg/mL was ≥ 200%.

On to `O=C(c1ccc(-c2ccc3c(-c4ccc(OCCO)cc4)cnn3c2)nc1)N1CCOCC1` [Example 146], for which the activity at 0.1 µg/mL is ≥ 200%.

On to `OCCNc1ccc(-c2cnc3ccc(Cl)cn23)cc1` [Example 118], for which the activity at 0.1 µg/mL is ≥ 200%.

As to `OCCOCCNc1ccc(-n2cnc3ccccc32)cc1` [Example 3, 2-(2-{[4-(1H-Benzimidazol-1-yl)phenyl]amino}ethoxy)ethanol], the activity at 0.1 µg/mL was ≥ 200%.

With `CCOc1ccc2c(-c3ccc(OCCO)cc3)cnn2c1` [Example 126], the activity at 0.1 µg/mL was ≥ 200%.

As to `c1cc(-c2ccc3c(-c4ccc(OCCOC5CCOCC5)cc4)cnn3c2)ccn1` [Example 127], the activity at 0.1 µg/mL was ≥ 200%.

`c1ccn2c(N3CCC(OCCOC4CCOCC4)CC3)cnc2c1` [Example 79]: the activity at 0.1 µg/mL was ≥ 200%.

In the case of `O=C(C1CC1)N1CCC(OCCOC2CCN(c3cnc4ccc(Cl)cn34)CC2)CC1` [Example 138], the activity at 0.1 µg/mL is ≥ 200%.

Take `c1ccn2c(-c3ccc(OCCOC4CCOCC4)cc3)cnc2c1` [Example 98]: the activity at 0.1 µg/mL was ≥ 200%.

For the compound `OCCOc1ccc(-n2cnc3cc4c(cc32)OCCO4)cc1` [Example 35], the activity at 0.1 µg/mL is ≥ 200%.

In the case of `Cn1cc(-c2ccc3ncc(-c4ccc(NCCOC5CCOCC5)cc4)n3c2)cn1` [Example 136], the activity at 0.1 µg/mL was ≥ 200%.

On to `COc1ccn2ncc(-c3ccc(NCCO)cc3)c2c1` [Example 121], for which the activity at 0.1 µg/mL was ≥ 200%.

On to `CC(=O)N1CCC(OCCOc2ccc(-n3cnc4ccccc43)cc2)CC1` [Example 46], for which the activity at 0.1 µg/mL was ≥ 200%.

In the case of `Cn1ccc(-c2ccn3c(-c4ccc(OCCO)cc4)cnc3c2)c1` [Example 67], the activity at 0.1 µg/mL is ≥ 200%.

Regarding `O=C(c1ccc(-c2ccn3c(N4CCC(OCCOC5CCOCC5)CC4)cnc3c2)cc1)N1CCOCC1` [Example 17, 7-[4-(Morpholin-4-ylcarbonyl)phenyl]-3-{4-[2-(tetrahydro-2H-pyran-4-yloxy)ethoxy]piperidin-1-yl}imidazo[1,2-a]pyridine], the activity at 0.1 µg/mL is ≥ 200%.

Turning to `OCCOc1ccc(-c2cnc3ccccn23)cc1` [Example 115], the activity at 0.1 µg/mL is ≥ 200%.

As for `OCCOc1ccc(-c2cnc3ccc(Cl)cn23)cc1` [Example 116], the activity at 0.1 µg/mL is ≥ 200%.

Regarding `OCCOc1ccc(-n2cnc3cc(-c4cc[nH]c4)ccc32)cc1` [Example 57], the activity at 0.1 µg/mL was ≥ 200%.

As to `OCCOc1ccc(-c2cnc3ccc(F)cn23)cc1` [Example 7, 2-[4-(6-Fluoroimidazo[1,2-a]pyridin-3-yl)phenoxy]ethanol], the activity at 0.1 µg/mL is ≥ 200%.

For `CS(=O)(=O)N1CCC(OCCOc2ccc(-n3cnc4ccccc43)cc2)CC1` [Example 45], the activity at 0.1 µg/mL is ≥ 200%.

In the case of `O=C(O)c1ccc(OCCOc2ccc(-n3cnc4ccccc43)cc2)cc1` [Example 12, 4-{2-[4-(1H-Benzimidazol-1-yl)phenoxy]ethoxy}benzoic acid hydrochloride], the activity at 0.1 µg/mL is ≥ 200%.

Turning to `OC1COCC1OCCOc1ccc(-c2cnc3ccc(F)cn23)cc1` (centres unmarked) [Example 86], the activity at 0.1 µg/mL was ≥ 200%.

Consider `O=C(O)c1ccc(-c2ccc3c(c2)ncn3-c2ccc(OCCO)cc2)cc1` [Example 13, 4-{1-[4-(2-Hydroxyethoxy)phenyl]-1H-benzimidazol-5-yl}benzoic acid], for which the activity at 0.1 µg/mL is ≥ 200%.

For `Cn1cc(-c2ccn3c(-c4ccc(OCCO)cc4)cnc3c2)cn1` [Example 65], the activity at 0.1 µg/mL was ≥ 200%.

Regarding `COc1cc2ncn(-c3ccc(NCCO)cc3)c2cc1OC` [Example 28], the activity at 0.1 µg/mL was ≥ 200%.

For the compound `CC(=O)N1CCN(c2ccc3c(c2)ncn3-c2ccc(OCCO)cc2)CC1` [Example 40], the activity at 0.1 µg/mL was ≥ 200%.
